Assay results published in US12419961B2 (CNPharm Co., Ltd., priority 2021, dated 2025).

Columns and labels:
pancreatic cancer = pancreatic cancer patients, cited from earlier work
[1] = test system: PANC-1 pancreatic carcinoma tumors; assay: anticancer efficacy in mouse xenograft model (tumor growth); type: in vivo, BALB/c mice
Description: (§1) Normally, non-treated group is injected with saline (NaCl solution) in anti-cancer efficacy study.

[2] = weight monitoring in mouse xenograft model; type: in vivo, BALB/c mice; settings: FIG. 6B; PANC-1 model; dose: docetaxel standard, 20 mg/kg
Description: as §1

L929 = assay: cell viability assay on L929 normal cell line; type: cell-based; settings: FIG. 5B; normal mouse fibroblast cell line

Compound: Nc1ccn([C@@H]2O[C@H](CO)[C@@H](O)C2(F)F)c(=O)n1 [gemcitabine]
- survival rate, gemcitabine compared to 5-FU (pancreatic cancer): 5.65 months

Compound: O=c1[nH]cc(F)c(=O)[nH]1 [5-FU, 5-fluorouracil]
- survival rate, gemcitabine compared to 5-FU (pancreatic cancer): 4.41 months
- median overall survival rate compared to supportive care (pancreatic cancer; supportive care 2.5 months): 6 moths

Compound: CC(=O)O[C@@]12CO[C@@H]1C[C@H](O)[C@@]1(C)C(=O)[C@H](O)C3=C(C)[C@@H](OC(=O)[C@H](O)[C@@H](NC(=O)OC(C)(C)C)c4ccccc4)C[C@@](O)([C@@H](OC(=O)c4ccccc4)[C@H]21)C3(C)C [DTX, docetaxel]
- tumor growth (mean tumor volume) ([1]; FIG. 6A; PANC-1 model; dose: docetaxel standard, 20 mg/kg; P<0.01 vs negative control): significant inhibition in tumor growth
- body weight loss [2]: significant body weight loss was observed
- cytotoxicity toward normal cell line L929 (L929): low cytotoxicity

Compound: docetaxel-aconitic anhydride conjugate [A3Tx]
- tumor growth (mean tumor volume) ([1]; FIG. 6A, PANC-1 model, dose: docetaxel standard, 20 mg/kg, P<0.01 vs negative control): significant inhibition in tumor growth
- tumor growth (mean tumor volume) ([1]; FIG. 6A, PANC-1 model, dose: docetaxel standard, 20 mg/kg, P<0.01 vs negative control, listed as A3TX): significantly delays tumor growth
